The subject of one assay is acidic lysosomes. The assay is described as follows: Lysotracker labelling of acidic compartments in hippocampal neurons. The format is cell-based, rat. As to conditions: addition of control Bafilomycin A. Here is the method: FIG. 24. Mature E18 hippocampal neurons were treated 3 μM NU-9, and subsequently labelled with lysotracker. A) total immunofluorescence (integrated density), B) mean intensity, C) average size of acidic compartments, D) number of acidic compartments.

The subject of a further assay is AβOs bound to neurons. The assay can be described thus: AβOs bound to dendrites of hippocampal neurons treated with Aβ42 monomer (immunofluorescence, NU2/NU4). The class given is cell-based, rat. The following applies: for influence of lysosome acidification inhibitor on the effect of NU-9: Bafilomycin A 100 nM, 30 min prior to 3 μM NU-9, then 500 nM Aβ monomer 30 min; for AβO accumulation under cathepsin L inhibition: 10 μM cathepsin L inhibitor 1 h, 500 nM Aβ 30 min.

Another assay has as its target cathepsin B (Homo sapiens, UniProt P07858). The assay is described as follows: Purified cathepsin B enzyme activity (Z-RR-AMC to 7-AMC). The following applies: same concentration range (0.0003-30 μM). The class given is biochemical. The procedure:
FIG. 28. A) 0.0003-30 μM NU-9 was combined with purified cathepsin B enzyme in the presence of the cathepsin B substrate Z-RR-AMC. Cathepsin B enzyme activity was measured by the rate of 7-AMC production by fluorescence. Percent change in rate with NU-9 was quantified in the graph. […] B) Mature hippocampal neurons were treated with NU-9 for 30 minutes, then Magic Red was used to monitor intracellular cathepsin L activity. Cells were treated in 3 wells.

The target of another assay is cathepsin L (Homo sapiens, UniProt P07711). The assay can be described thus: Purified cathepsin L enzyme activity (Z-FR-AMC to 7-AMC). The class given is biochemical. The following applies: same concentration range (0.0003-150 μM). The procedure:
FIG. 26. A) 0.0003-150 μM NU-9 was combined with purified cathepsin L enzyme in the presence of the cathepsin L substrate Z-FR-AMC. Cathepsin L enzyme activity was measured by the rate of 7-AMC production by fluorescence. Percent change in rate was quantified in the graph. […] B) Mature hippocampal neurons were treated with NU-9 for 30 minutes, then Magic Red was used to monitor intracellular cathepsin L activity. Cells were treated in 3 wells, and 9-22 images were analyzed per condition.
No effect of 0.0003-150 μM NU-9 was observed on the cathepsin L activity as measured by the production rate of 7-AMC from Z-FR-AMC by purified cathepsin L enzyme.

“Also recorded” adds a separate entry of the source. Where a SMILES comes first, the peptide text is derived from it. The star is where a group is joined. Cbz = O=C(OCc1ccccc1)*

Sequence of cathepsin L (P07711 114-333, species assumed): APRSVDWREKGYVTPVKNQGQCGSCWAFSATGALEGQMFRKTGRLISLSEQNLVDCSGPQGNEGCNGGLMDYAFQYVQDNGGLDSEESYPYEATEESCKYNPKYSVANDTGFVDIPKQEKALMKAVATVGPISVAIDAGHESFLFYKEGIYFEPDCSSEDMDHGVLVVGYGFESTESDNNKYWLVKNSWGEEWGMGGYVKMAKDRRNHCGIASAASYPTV

For the molecule `CO/C1=C\C(C)=C\[C@@H](C)[C@@H](O)[C@@H](C)C/C(C)=C/C=C/[C@H](OC)[C@@H]([C@@H](C)[C@@H](O)[C@H](C)[C@@]2(O)C[C@@H](O)[C@H](C)[C@@H](C(C)C)O2)OC1=O` [Bafilomycin A], the “integrated fluorescent density of lysotracker, control” value with acidic lysosomes is “significantly reduced”. Also, the “neuron-binding AβOs with lysosome inhibitor in the absence of NU-9” value in the assay on AβOs bound to neurons (100 nM bafilomycin A 30 min, Aβ monomer 500 nM 30 min, vs Aβ monomer alone) was “did not lead to the formation of significantly more neuron-binding AβOs”. Besides, the “influence of lysosome acidification inhibitor on the effect of NU-9” value is given as “prevents the effect of NU-9 on AβOs bound to synapses; also recorded: significantly prevented the effect of NU-9” in the assay with AβOs bound to neurons and “prevented the effect of NU-9” in the assay with AβOs bound to neurons (listed as Bafilomyicin A).

In the case of `CCCNC(=O)[C@H]1O[C@@H]1C(=O)N[C@H](C(=O)N1CCC[C@H]1C(=O)O)[C@@H](C)CC` [CA-074], in the assay on AβOs bound to neurons (10 μM CA-074 24 h, 3 μM NU-9 30 min, 500 nM Aβ monomer 30 min), the “influence of cathepsin B inhibitor on the effect of NU-9” value is “prevented the effect of NU-9”. The “cathepsin B activity, standard inhibitor” value on cathepsin B is “Clear inhibition of enzyme activity”.

With `CC(C)C[C@H](NC(=O)[C@H]1O[C@@H]1C(=O)O)C(=O)NCCCCN=C(N)N` [E64], the “number of bound AβOs, inhibitor alone” value in the assay on AβOs bound to neurons (E64 10 μM, 24 h, Aβ monomer 500 nM 30 min) is on record as “significantly reduced the number of bound AβOs”. In the assay on AβOs bound to neurons (E64 10 μM, 24 h, then NU-9 3 μM 30 min, Aβ monomer 500 nM 30 min), the “influence of cysteine cathepsin inhibitor on the effect of NU-9” value is recorded as “did not significantly change the effectiveness of NU-9; also recorded: does not prevent the effect of NU-9”.

As to `CC(C)C[C@@H](C=O)NC(=O)[C@H](CC(C)C)NC(=O)[C@H](CC(C)C)NC(=O)OCc1ccccc1` [MG132] (Cbz-Leu-Leu-Leu-aldehyde), the “formation of AβOs under proteasome inhibition” value in the assay on AβOs bound to neurons (100 nM MG132 30-min pre-treatment, 500 nM Aβ42) is on record as “no effect on formation of AβOs”. Besides, in the assay with AβOs bound to neurons (100 nM MG132 30 min, 3 μM NU-9 30 min, 500 nM Aβ42), the “influence of proteasome inhibition on reduction of AβO accumulation by NU-9” value is reported as “no effect on formation of AβOs or reduction of AβO accumulation by NU-9”.

Regarding `O=C[C@H](Cc1ccc(O)cc1)NC(=O)[C@H](Cc1ccccc1)NC(=O)OCc1ccccc1` [Z-FY-CHO] (Cbz-Phe-Tyr-aldehyde), the “AβO accumulation under cathepsin L inhibition” value in the assay with AβOs bound to neurons is given as “mimicked the effect of NU-9”; with AβOs bound to neurons (listed as Cathepsin L inhibitor), “prevents AβO accumulation”. Besides, the “cathepsin L activity, standard inhibitor” value on cathepsin L is reported as “reduced cathepsin L activity”.

As for `Ic1cccc(/C=N/Nc2nc(N3CCOCC3)nc(N(c3ccccc3)c3ccccc3)n2)c1` [vacuolin-1], the “influence of inhibition of lysosome maturation and exocytosis on NU-9” value with AβOs bound to neurons (1 μM vacuolin-1 1 h pre-treatment, 3 μM NU-9 30 min, 500 nM Aβ42) was “prevented the effectiveness of NU-9”.

Take MDL-28170: the “AβO accumulation under calpain inhibition” value in the assay on AβOs bound to neurons (10 μM MDL-28170 30 min, 500 nM Aβ42 30 min) is “reducing AβO accumulation; also recorded: may mimic the effect of NU-9”.

Source of the values: US20240325319A1, “INHIBITORS OF AMYLOID BETA OLIGOMERIZATION AND THERAPEUTIC USES THEREOF” (Northwestern University, priority 2021, published 2024).
